In brackets after ≈: the same amount, converted by molar mass. Activity calls are given as the source filed them. The rule behind the calls is not given here. Where a SMILES comes first, the peptide text is derived from it.
Key:
Escherichia coli = assay: Antibacterial activity against ESBL Escherichia coli 2 incubated for 18 hrs by visual inspection method; assay type: functional
Acinetobacter baumannii = assay: Antibacterial activity against multidrug resistant Acinetobacter baumannii 3 incubated for 18 hrs by visual inspection method; assay type: functional
Erythrocyte = assay: Hemolytic activity in rat erythrocytes at 500 to 1000 ug/ml incubated for 1 hr; assay type: toxicity, cell-based; settings: dose 500-1000 µg/ml
Cell membrane [1] = assay: Induction of cell membrane damage in Staphylococcus aureus assessed as decrease in red/green fluorescence ratio by DiOC2(3) fluorescent probe based assay; assay type: cell membranes
Cell membrane [2] = assay: Induction of cell membrane damage in Staphylococcus aureus assessed as change in morphology by measuring deformed membrane at 4 times MIC incubated for 5 hrs by SEM analysis; assay type: cell membranes
Cell membrane [3] = assay: Induction of cell membrane damage in Staphylococcus aureus assessed as change in morphology by measuring numerous blebs covered membrane at 4 times MIC incubated for 5 hrs by SEM analysis; assay type: cell membranes
Cell membrane [4] = assay: Induction of cell membrane damage in Escherichia coli assessed as change in morphology by measuring roughened membrane at 4 times MIC incubated for 5 hrs by SEM analysis; assay type: cell membranes
Cell membrane [5] = assay: Induction of cell membrane damage in Escherichia coli assessed as change in morphology by measuring numerous blebs covered membrane at 4 times MIC incubated for 5 hrs by SEM analysis; assay type: cell membranes
Staphylococcus aureus [6] = assay: Induction of resistance development against Staphylococcus aureus assessed as fold increase in MIC after 21 passages; assay type: functional
Staphylococcus aureus [7] = assay: Inhibition of biofilm formation in Staphylococcus aureus at MIC incubated for 24 hrs by crystal violet staining based assay; assay type: functional
[8] = Toxicity in BALB/c mouse assessed as lung damage at 400 mg/kg, ip measured after 48 hrs by H and E staining based assay; assay type: organism-based; settings: in vivo
[9] = Toxicity in BALB/c mouse assessed as edema in hepatocytes at 200 to 400 mg/kg, ip measured after 48 hrs by H and E staining based assay; assay type: organism-based; settings: in vivo, dose 200-400 mg/kg

With CC[C@H](C)[C@H](NC(=O)[C@H](Cc1ccccc1)NC(=O)[C@@H](N)Cc1c[nH]c2ccccc12)C(=O)N[C@H](C(=O)N[C@@H](Cc1c[nH]c2ccccc12)C(=O)N[C@@H](Cc1c[nH]cn1)C(=O)N[C@@H](Cc1c[nH]c2ccccc12)C(=O)N[C@@H](CCCNC(=N)N)C(=O)N[C@@H](CCCCN)C(=O)N[C@H](C(=O)N1CCC[C@H]1C(=O)N1CCC[C@H]1C(=O)N[C@@H](CCCCN)C(N)=O)[C@@H](C)CC)[C@@H](C)CC (H-WFIIWHWRKIPPK-NH2) the MIC (Escherichia coli) was 15 mg/L (≈ 8.3 µM), the MIC (Acinetobacter baumannii) was 7.5 mg/L (≈ 4.15 µM) and the Activity (Erythrocyte) was “Toxic”. The Activity (Cell membrane [1]) was “Dose-Dependent Effect”, the Activity (Cell membrane [2]) was “Active” and the Activity (Cell membrane [3]) was “Active”. For the same compound, the Activity (Cell membrane [4]) was “Active”, the Activity (Cell membrane [5]) was “Active” and the fold change (FC) (Staphylococcus aureus [6]) was 2. The “inhibition (INH)” value (Staphylococcus aureus [7]) was 12.29%, the Activity [8] was “Non-Toxic” and the Activity [9] was “Toxic”.
